The values below are quoted from earlier work in patent publication US20180338996A1, “COMBINATION THERAPY FOR TRAUMATIC BRAIN INJURY” (UNIVERSITY OF SOUTH FLORIDA, priority 2017, published 2018).

On to `CCc1ccc(CCOc2ccc(CC3SC(=O)NC3=O)cc2)nc1` (centres unmarked) [PG, pioglitazone], for which the “adverse effects in clinical use” value is “weight gain, fluid retention, congestive heart failure, and bone fractures”. `CN(CCOc1ccc(CC2SC(=O)NC2=O)cc1)c1ccccn1` (centres unmarked) [rosiglitazone]: the “adverse effects in clinical use” value is “weight gain, fluid retention, congestive heart failure, and bone fractures”.
